“And” between values parts separate entries of the source, which are not always exact repeats. Equal entries are not always repeated. Where two headings read alike, the source gives them in different places.
What was measured:
Ca. L. asiaticus [1] = type: cell-based; settings: 10 mM glucose and 100 μg/ml amikacin
Ca. L. asiaticus [2] = settings: cited from earlier work
Ca. L. asiaticus [3] = type: cell-based, Candidatus Liberibacter asiaticus (strain psy62); settings: for fold change in Ca. L. asiaticus GE: 7 days
[4] = system: Lysinibacillus mangiferihumi; type: cell-based
Clostridium argentinense = type: cell-based
Paenibacillus silvae = type: cell-based
[5] = system: Flavobacterium acidificum; type: cell-based
Pseudomonadaceae = type: cell-based
Bacillus cereus [6] = settings: cited from earlier work
Bacillaceae = type: cell-based
Pseudomonas putida = type: cell-based
[7] = system: Stenotrophomonas bentonitica; type: cell-based
Bacillus cereus [8] = type: cell-based
Comamonas terrigena = type: cell-based
Pantoea cypripedii = type: cell-based
Brevibacillus gelatini = type: cell-based

In the case of `NCC[C@H](O)C(=O)N[C@@H]1C[C@H](N)[C@@H](O[C@H]2O[C@H](CN)[C@@H](O)[C@H](O)[C@H]2O)[C@H](O)[C@H]1O[C@H]1O[C@H](CO)[C@@H](O)[C@H](N)[C@H]1O` [amikacin], the “Ca. L. asiaticus GE, day 3” value (Ca. L. asiaticus [1]; 10% O2 (FIG. 13)) was 1.15×10^5±2.8×10^4 GE, the “fold potentiation in Ca. L. asiaticus DNA content vs glucose alone” value (Ca. L. asiaticus [1]; three days) was 3.03 fold and the “overall fold increase in GE compared to starting material (d0)” value (Ca. L. asiaticus [1]; three days) was 11.1 fold. The “activity against / sensitivity of Ca. L. asiaticus” value (Ca. L. asiaticus [2]) was “does not appear to be sensitive”.
In the case of `[H]/N=C(/N)N[C@H]1[C@H](O)[C@@H](O)[C@H](O[C@@H]2O[C@@H](C)[C@](O)(C=O)[C@H]2O[C@@H]2O[C@@H](CO)[C@H](O)[C@@H](O)[C@@H]2NC)[C@@H](N/C(N)=N\[H])[C@@H]1O` [streptomycin], the “fold change in Ca. L. asiaticus GE” value (Ca. L. asiaticus [3]; 0.02 μg/ml streptomycin, vs non-antibiotic control) was 5.56±0.15 fold and ~6 fold, the “Ca. L. asiaticus growth compared to untreated cultures” value (Ca. L. asiaticus [3]; streptomycin >0.5 μg/ml) was “reduced” and the “proportion of OTU 4” value [4] was 0.000. The “proportion of OTU 5” value (Clostridium argentinense; Str 0.02 μg/ml) was 0.002, the “proportion of OTU 5” value (Clostridium argentinense; Str 0.05 μg/ml) was 0.007 and the “proportion of OTU 5” value (Clostridium argentinense; Str 0.5 μg/ml) was 0.154. For the same molecule, the “proportion of OTU 5” value (Clostridium argentinense; Str 1.00 μg/ml) was 0.131, the “proportion of OTU 5” value (Clostridium argentinense; Str 2.00 μg/ml) was 0.104 and the “proportion of OTU 8” value (Paenibacillus silvae) was 0.000. For the same molecule, the “proportion of OTU 10” value [5] was 0.000, the “decrease of proportion of Pseudomonadaceae compared to non-antibiotic samples” value (Pseudomonadaceae) was 5.5 times and 9.8 times and the “concentration sub-inhibitory to Bacillus cereus” value (Bacillus cereus [6]) was < 2.9 µg/mL.
With polymyxin B the “fold change in Ca. L. asiaticus GE” value (Ca. L. asiaticus [3]; 2 μg/ml polymyxin B, vs non-antibiotic control) was 2.28±0.15 fold, the “fold change in Ca. L. asiaticus GE” value (Ca. L. asiaticus [3]; 4 μg/ml polymyxin B, vs non-antibiotic control) was 4.54±0.83 fold and the “fold change in Ca. L. asiaticus GE” value (Ca. L. asiaticus [3]; <1 μg/ml polymyxin B, vs untreated cultures) was 0.03±0.13 fold. For the same molecule, the “proportion of OTU 4” value [4] was 0.000, the “proportion of OTU 5” value (Clostridium argentinense; Pmb 0.5 μg/ml) was 0.194 and the “proportion of OTU 5” value (Clostridium argentinense; Pmb 2 μg/ml) was 0.001. For the same molecule, the “proportion of OTU 5” value (Clostridium argentinense; Pmb 4 μg/ml) was 0.011, the “proportion of OTU 8” value (Paenibacillus silvae) was 0.000 and the “reads that were Bacillaceae members” value (Bacillaceae) was 70.7%. For the same molecule, the “decrease of proportion of Pseudomonadaceae compared to non-antibiotic samples” value (Pseudomonadaceae) was 30.5 times, the “concentration sub-inhibitory to Bacillus cereus” value (Bacillus cereus [6]) was < 0.65 µg/mL and the “activity against / sensitivity of Ca. L. asiaticus” value (Ca. L. asiaticus [2]) was “not active”.
With `C[C@H]1O[C@H](O[C@H]2[C@H](O)[C@@H](O)[C@@H](O)[C@H](O)[C@@H]2O)[C@@H](N)C[C@@H]1NC(=N)C(=O)O` [kasugamycin] the “enhancement of Ca. L. asiaticus growth” value (Ca. L. asiaticus [3]; kasugamycin treatment) was “did not enhance”, the “proportion of OTU 1” value (Pseudomonas putida) was 0.599 and the “proportion of OTU 2” value [7] was 0.136. The “proportion of OTU 3” value (Bacillus cereus [8]) was 0.001, the “proportion of OTU 4” value [4] was 0.000 and the “proportion of OTU 5” value (Clostridium argentinense; Kag 0.25 μg/ml) was 0.030. For the same molecule, the “proportion of OTU 6” value (Comamonas terrigena) was 0.000, the “proportion of OTU 7” value (Pantoea cypripedii) was 0.005 and the “proportion of OTU 8” value (Paenibacillus silvae) was 0.000. The “proportion of OTU 9” value (Brevibacillus gelatini) was 0.001 and the “proportion of OTU 10” value [5] was 0.056.
With `CN[C@H](CC(C)C)C(=O)N[C@H]1C(=O)N[C@@H](CC(N)=O)C(=O)N[C@H]2C(=O)N[C@H]3C(=O)N[C@H](C(=O)N[C@H](C(=O)O)c4cc(O)cc(O)c4-c4cc3ccc4O)[C@H](O)c3ccc(c(Cl)c3)Oc3cc2cc(c3O[C@@H]2O[C@H](CO)[C@@H](O)[C@H](O)[C@H]2O[C@H]2C[C@](C)(N)[C@H](O)[C@H](C)O2)Oc2ccc(cc2Cl)[C@H]1O` [vancomycin] the “fold change in Ca. L. asiaticus GE” value (Ca. L. asiaticus [3]; 50 μg/ml vancomycin, vs non-antibiotic control) was 7.35±0.27 fold, the “proportion of OTU 1” value (Pseudomonas putida) was 0.479 and 0.469 and 0.398 and 0.318 and 0.527 and the “proportion of OTU 5” value (Clostridium argentinense; Van 25 μg/ml) was 0.120. The “proportion of OTU 5” value (Clostridium argentinense; Van 35 μg/ml) was 0.101, the “proportion of OTU 5” value (Clostridium argentinense; Van 50 μg/ml) was 0.071 and the “proportion of OTU 5” value (Clostridium argentinense; Van 75 μg/ml) was 0.039. For the same molecule, the “proportion of OTU 5” value (Clostridium argentinense; Van 100 μg/ml) was 0.004, the “proportion of OTU 8” value (Paenibacillus silvae) was 0.000 and the “proportion of OTU 9” value (Brevibacillus gelatini) was 0.000.

Reference: patent US20210403860A1 (priority 2018, published 2021)
